Assays:
NF-κB = NF-κB GFP assay in NFκB/Jurkat/GFP transcriptional reporter cells stimulated with TNF-α; type: cell-based; conditions: Homo sapiens, TNF-α 5 ng/ml, 24 hours, read-out: NF-KB GFP IC50
Protocol: NFκB/Jurkat/GFP transcriptional reporter cell line was obtained from SBI System Biosciences. NF-κB/Jurkat/GFP™ Reporter cells (5×10^5 cells) were plated at a concentration of 1 million cells/ml into each well of a 24-well plate. TNF-α (5 ng/ml) was added. Compounds were added via serial dilutions to corresponding wells. After 24 hours, 100 μl of the cells were transferred to a well of a Costar® UV plate (96 well, No lid, w/UV Transparent Flat Bottom, Corning, N.Y., Cat #3635) and the intensity of GFP fluorescence was measured (Excitation 485+/−20, Emission 528+/−20) in a Synergy™ HT Multi-Detection Microplate Reader (BioTech, Winooski, Vt.). The intensities of GFP measured were plotted against the […].

c-Rel protein = target: T1, c-Rel protein (Homo sapiens, UniProt Q04864); assay: Electrophoretic Mobility Shift Assay (EMSA), c-Rel binding to CD28RE oligonucleotide; conditions: 10 nM c-Rel protein
T1 sequence (Q04864 1-619): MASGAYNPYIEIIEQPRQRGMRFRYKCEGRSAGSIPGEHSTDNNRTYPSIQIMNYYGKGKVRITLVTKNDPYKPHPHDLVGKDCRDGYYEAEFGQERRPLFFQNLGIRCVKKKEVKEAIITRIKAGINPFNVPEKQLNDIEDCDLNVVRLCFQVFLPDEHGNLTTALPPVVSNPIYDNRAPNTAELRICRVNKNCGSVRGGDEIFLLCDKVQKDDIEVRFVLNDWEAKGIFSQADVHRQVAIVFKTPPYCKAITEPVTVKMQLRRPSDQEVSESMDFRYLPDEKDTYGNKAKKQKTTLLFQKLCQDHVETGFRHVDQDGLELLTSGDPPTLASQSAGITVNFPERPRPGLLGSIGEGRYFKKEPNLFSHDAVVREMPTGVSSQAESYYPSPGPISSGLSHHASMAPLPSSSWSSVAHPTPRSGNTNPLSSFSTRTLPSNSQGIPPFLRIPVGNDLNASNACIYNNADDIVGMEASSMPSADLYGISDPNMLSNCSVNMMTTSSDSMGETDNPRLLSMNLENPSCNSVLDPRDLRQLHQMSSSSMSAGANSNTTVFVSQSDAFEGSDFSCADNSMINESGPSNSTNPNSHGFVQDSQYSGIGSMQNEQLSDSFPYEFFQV
Protocol: DNA binding reaction (20 μL) was carried out in 1×DNA Binding Buffer (10 mM Tris, 40 mM NaCl, 1 mM EDTA, 4% glycerol) with 10 nM c-Rel protein and 0.5 ng phosphor-labeled CD28RE oligonucleotide for 10 minutes at room temperature in 96-well plates. Test compounds, in serial dilutions, were added into each well, and further incubated for 15 minutes before loading onto native 5% polyacrylamide gel. Electrophoresis proceeded for 2.5 hours at 160V. Radioactive signals were quantified using Phospho-Imager. IC50 of compounds of example 1 to 75 were determined by quantifying the intensity of Rel/NF-κB inhibition in EMSA using phospho-imager. An example of EMSA data of the present invention is shown for compound 6 in FIG. 2.

PBMC [1] = assay: CellTiter-Glo IG50, Example 10 HCC panel, PBMC; type: cell-based; conditions: 72 hours
Protocol: (§1) The cells were harvested during the logarithmic growth period and counted. Cell concentrations were adjusted to the appropriate number in appropriate medium and 90 μl cell suspensions were added to 96-well plates. When cells were added, the plates were shaken gently to distribute the cells evenly. Cells were incubated at 37° C. and 5% CO2.
(§2) 3× serial dilutions of test compound stock solutions with respective solvents were prepared. The stock solutions were diluted with culture medium to generate 10× working solutions of the test compounds. 10 μl of the 10× test compound solutions were added to each well in triplicate for each concentration. Plates were incubated for 72 hours in a humidified incubator at 37° C. and 5% CO2.
(§3) CellTiter-Glo (CTG) solution was thawed and equilibrated to room temperature. 50 μl of CTG were added to each well and the contents were mixed for 2 minutes on a plate shaker. Cells were incubated for 10 minutes before luminescence signal was recorded using Envision.
(§4) Cell viability was plotted with GraphPad Prism version 5 and the IG50 was calculated for each cell line. The graphical curves were fitted using a nonlinear regression model with a sigmoidal dose response. IG50 is the concentration of test drug where 100×T/C=50 (the optical density of the test well after a 3-day period of exposure to test drug is T; the control optical density is C).
(§5) The cells were cultured in an atmosphere of 37° C., 5% CO2 and 95% humidity. All culture media and FBS were purchased from GIBCO, Hyclone or Sigma, USA. The media used for cell culture is described in the table below.
(§6) Following the cell culture protocol and data analysis method described in Example 8, the following IG50 results (in μM) were observed: […]

Hep3B [2] = assay: CellTiter-Glo IG50, Example 10 HCC panel, Hep3B; type: cell-based; conditions: Homo sapiens, 72 hours
Protocol: as §1, §2, §3, §4, §5, §6

PBMC [3] = assay: CellTiter-Glo IG50, Example 9 HCC panel, PBMC; type: cell-based; conditions: 72 hours
Protocol: as §1, §2, §3, §4, §5
(§7) Following the cell culture protocol and data analysis methods described in Example 8, the following IG50 results (in μM) were observed: […]

HUH7 [4] = assay: CellTiter-Glo IG50, Example 10 HCC panel, HUH7; type: cell-based; conditions: Homo sapiens, Huh-7, HUH7, 72 hours
Protocol: as §1, §2, §3, §4, §5, §6

SNU878 [5] = assay: CellTiter-Glo IG50, Example 10 HCC panel, SNU878; type: cell-based; conditions: SNU878, 72 hours
Protocol: as §1, §2, §3, §4, §5, §6

JHH5 [6] = assay: CellTiter-Glo IG50, Example 9 HCC panel, JHH5; type: cell-based; conditions: JHH5, 72 hours
Protocol: as §1, §2, §3, §4, §5, §7

JHH5 [7] = assay: CellTiter-Glo IG50, Example 10 HCC panel, JHH5; type: cell-based; conditions: JHH5, 72 hours
Protocol: as §1, §2, §3, §4, §5, §6

HepG2 [8] = assay: CellTiter-Glo IG50, Example 10 HCC panel, HepG2; type: cell-based; conditions: Homo sapiens, HepG2, 72 hours
Protocol: as §1, §2, §3, §4, §5, §6

Hep3B [9] = assay: CellTiter-Glo IG50, Example 9 HCC panel, Hep3B; type: cell-based; conditions: Homo sapiens, 72 hours
Protocol: as §1, §2, §3, §4, §5, §7

PLC/PRF/5 [10] = assay: CellTiter-Glo IG50, Example 10 HCC panel, PLC/PRF/5; type: cell-based; conditions: Homo sapiens, PLC/PRF/5, 72 hours
Protocol: as §1, §2, §3, §4, §5, §6

SNU878 [11] = assay: CellTiter-Glo IG50, Example 9 HCC panel, SNU878; type: cell-based; conditions: SNU878, 72 hours
Protocol: as §1, §2, §3, §4, §5, §7

HUH7 [12] = assay: CellTiter-Glo IG50, Example 9 HCC panel, HUH7; type: cell-based; conditions: Homo sapiens, Huh-7, HUH7, 72 hours
Protocol: as §1, §2, §3, §4, §5, §7

HepG2 [13] = assay: CellTiter-Glo IG50, Example 9 HCC panel, HepG2; type: cell-based; conditions: Homo sapiens, HepG2, 72 hours
Protocol: as §1, §2, §3, §4, §5, §7

PLC/PRF/5 [14] = assay: CellTiter-Glo IG50, Example 9 HCC panel, PLC/PRF/5; type: cell-based; conditions: Homo sapiens, PLC/PRF/5, 72 hours
Protocol: as §1, §2, §3, §4, §5, §7

Capan-1 = assay: CellTiter-Glo IG50, Example 8, Capan-1; type: cell-based; conditions: Homo sapiens, Capan-1, 72 hours
Protocol: (§8) Various pancreatic, liver, colon, breast, and stomach cancer cell lines were exposed to the NF-κB inhibitors of the present invention, including, for example, IT-839, IT-843, IT-848, and IT-878, and assessed for IG50 in the CellTiter Glo 2.0 assay.
as §5, §1, §2, §3, §4

T47D = assay: CellTiter-Glo IG50, Example 8, T47D; type: cell-based; conditions: Homo sapiens, 72 hours
Protocol: as §8, §5, §1, §2, §3, §4

PANC-1 = assay: CellTiter-Glo IG50, Example 8, PANC-1; type: cell-based; conditions: Homo sapiens, PANC-1, 72 hours
Protocol: as §8, §5, §1, §2, §3, §4

Hep3B [15] = assay: CellTiter-Glo IG50, Example 8, Hep3B; type: cell-based; conditions: Homo sapiens, 72 hours
Protocol: as §8, §5, §1, §2, §3, §4

MCF-7 = assay: CellTiter-Glo IG50, Example 8, MCF-7; type: cell-based; conditions: Homo sapiens, MCF7, MCF-7, 72 hours
Protocol: as §8, §5, §1, §2, §3, §4

MKN45 = assay: CellTiter-Glo IG50, Example 8, MKN45; type: cell-based; conditions: Homo sapiens, MKN-45, MKN45, 72 hours
Protocol: as §8, §5, §1, §2, §3, §4

HepG2 [16] = assay: CellTiter-Glo IG50, Example 8, HepG2; type: cell-based; conditions: Homo sapiens, HepG2, 72 hours
Protocol: as §8, §5, §1, §2, §3, §4

MIAPACA-2 = assay: CellTiter-Glo IG50, Example 8, MIAPACA-2; type: cell-based; conditions: Homo sapiens, MIA PaCa-2, MIAPACA-2, 72 hours
Protocol: as §8, §5, §1, §2, §3, §4

AGS = assay: CellTiter-Glo IG50, Example 8, AGS; type: cell-based; conditions: Homo sapiens, 72 hours
Protocol: as §8, §5, §1, §2, §3, §4

HCT116 = assay: CellTiter-Glo IG50, Example 8, HCT116; type: cell-based; conditions: Homo sapiens, HCT-116, HCT116, 72 hours
Protocol: as §8, §5, §1, §2, §3, §4

KATO III = assay: CellTiter-Glo IG50, Example 8, KATO III; type: cell-based; conditions: Homo sapiens, 72 hours
Protocol: as §8, §5, §1, §2, §3, §4

HT-29 = assay: CellTiter-Glo IG50, Example 8, HT-29; type: cell-based; conditions: Homo sapiens, HT-29, 72 hours
Protocol: as §8, §5, §1, §2, §3, §4

LoVo = assay: CellTiter-Glo IG50, Example 8, LoVo; type: cell-based; conditions: Homo sapiens, 72 hours
Protocol: as §8, §5, §1, §2, §3, §4

PLC/PRF/5 [17] = assay: CellTiter-Glo IG50, Example 8, PLC/PRF/5; type: cell-based; conditions: Homo sapiens, PLC/PRF/5, 72 hours
Protocol: as §8, §5, §1, §2, §3, §4

MDA-MB-231 = assay: CellTiter-Glo IG50, Example 8, MDA-MB-231; type: cell-based; conditions: Homo sapiens, MDA-MB-231, 72 hours
Protocol: as §8, §5, §1, §2, §3, §4

Question: For `COc1cc(OC)c2cc3c(=O)[nH]c(=O)nc-3oc2c1` [compound 14, 6,8-dimethoxy-2H-chromeno[2,3-d]pyrimidine-2,4(3H)-dione], which IC50 (NF-κB) is on record?
Answer: 8.2 µM

Question: What about the IC50 (c-Rel protein) of the same compound?
Answer: < 1 µM

Question: With `CC(C)(C)CCOc1ccc2cc3c(=O)[nH]c(=O)nc-3oc2c1Cl` [IT-845] as the compound, how does the IC50 (PBMC [1]) read?
Answer: 2.4 µM

Question: And the IC50 (Hep3B [2])?
Answer: 4.03 µM

Question: And the IC50 (PBMC [3])?
Answer: 0.274 µM

Question: And the IC50 (HUH7 [4])?
Answer: 6.02 µM

Question: What about the IC50 (SNU878 [5]) of the same compound?
Answer: 9.8 µM

Question: And the IC50 (JHH5 [6])?
Answer: 8.11 µM

Question: And the IC50 (JHH5 [7])?
Answer: 10.1 µM

Question: And the IC50 (HepG2 [8])?
Answer: 6.95 µM

Question: And the IC50 (Hep3B [9])?
Answer: 1.81 µM

Question: And the IC50 (PLC/PRF/5 [10])?
Answer: 9.22 µM

Question: What about the IC50 (SNU878 [11]) of the same compound?
Answer: 10.7 µM

Question: What about the IC50 (HUH7 [12]) of the same compound?
Answer: 2.72 µM

Question: And the IC50 (HepG2 [13])?
Answer: 4.14 µM

Question: And the IC50 (PLC/PRF/5 [14])?
Answer: 7.66 µM

Question: What does the source list for `CCCCCCOc1ccc2cc3c(=O)[nH]c(=O)nc-3oc2c1Cl` [IT-848]?
Answer: IC50 (Capan-1): > 16 µM; IC50 (PBMC [1]): 3.63 µM; IC50 (Hep3B [2]): 6.09 µM; IC50 (PBMC [3]): 1.19 µM; IC50 (T47D): 6.14 µM; IC50 (HUH7 [4]): 7.72 µM; IC50 (SNU878 [5]): > 16 µM; IC50 (PANC-1): 9.88 µM; IC50 (Hep3B [15]): 2.43 µM; IC50 (JHH5 [6]): 12.9 µM; IC50 (JHH5 [7]): 13.4 µM; IC50 (MCF-7): 5.19 µM; IC50 (HepG2 [8]): 9.95 µM; IC50 (Hep3B [9]): 3.51 µM; IC50 (PLC/PRF/5 [10]): > 16 µM; IC50 (MKN45): > 16 µM; IC50 (SNU878 [11]): 14.6 µM; IC50 (HepG2 [16]): 6.7 µM; IC50 (HUH7 [12]): 4.25 µM; IC50 (MIAPACA-2): > 16 µM; IC50 (HepG2 [13]): 5.84 µM; IC50 (AGS): 7.67 µM; IC50 (HCT116): > 16 µM; IC50 (KATO III): > 16 µM; IC50 (PLC/PRF/5 [14]): > 16 µM; IC50 (HT-29): > 16 µM; IC50 (LoVo): 5.07 µM; IC50 (PLC/PRF/5 [17]): > 16 µM; IC50 (MDA-MB-231): 2.35 µM
